Activity calls are given as the source filed them.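 How the source made its calls: active means compounds giving half or more protection of infected cells from virus-caused growth loss, again on retest; inactive means the rest.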

This assay relates to CEM cells HIV-1 protection, formazan growth assay. As to the kind of experiment: NCI AIDS Antiviral Assay. Conditions: for IC50: measured here: growth of uninfected CEM cells. The procedure, abridged: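 Protection of CEM cells against HIV-1 was scored from cell growth (soluble formazan) across five concentrations, with parallel uninfected cells. Lack of protection may reflect toxicity.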

With `CCCCCCCCCCCCC(SCCNC(=O)CCNC(=O)C(O)C(C)(C)COP(=O)(O)OP(=O)(O)OCC1OC(n2cnc3c(N)ncnc32)C(O)C1OP(=O)(O)O)C(=O)NCC(N)=O` (stereo unspecified), the outcome was inactive.

In general, EC50 refers to the midpoint of the concentration-response curve. In general, IC50 refers to the concentration at which inhibition is half-maximal. As for `c1csc(-c2cc(-c3ccsc3)c(-c3cccs3)s2)c1`, the EC50 was above 200 µM and the IC50 amounted to 107 µM.

Turning to `O=C1C[C@@H](Sc2ccccc2)C2(OCCO2)C2ON3CCCC[C@H]3[C@H]12` (stereo partly specified), the EC50 was above 200 µM and the 50% inhibitory concentration (IC50) is 1.82 µM.

Take `Cc1ccc(Nc2cn(COCc3ccccc3)c(=O)[nH]c2=O)cc1`: the EC50 is above 200 µM and the IC50 is above 200 µM.

Turning to `C#C[C@]1(O)CC[C@H]2[C@@H]3CCC4=C/C(=N/OCCN(C)C)CC[C@]4(C)[C@H]3CC[C@@]21C`, the EC50 is above 100 µM and the IC50 amounted to 4.79 µM.

For `CCCCN(CCCC)CCCCCCCN1CCCc2cc(OC)ccc21`, the EC50 was above 200 µM and the 50% inhibitory concentration (IC50) was determined as 17.8 µM.

Regarding `O=C(NO)Nc1ccc(Cl)cc1`, the outcome was inactive and the IC50 stood at 251 µM.

Turning to `C=CCC1(C2=C(C)C(=O)c3ccccc32)CCCS1` (stereo unspecified), the EC50 was above 200 µM and the IC50 came out at 31.6 µM.

In the case of `CC1(C(=O)NCCN(CCNC(=O)C2(C)CC3(C)CC(C)(C2)C(=O)NC3=O)CCNC(=O)C2(C)CC3(C)CC(C)(C2)C(=O)NC3=O)CC2(C)CC(C)(C1)C(=O)NC2=O` (stereo unspecified), the result was inactive.

Regarding `NC(Cc1ccccc1)C(=O)N[C@H]1c2ccsc2/C(=N/O)[C@H]1O` (stereo partly specified), the EC50 was above 200 µM and the IC50 was above 200 µM.

With `Cc1nc(-c2cc3c(ccc4ccccc43)oc2=O)cs1`, the EC50 is above 100 µM and the half-maximal inhibitory concentration (IC50) was 95.5 µM.

With `O=C(NCO)NCOCn1c(=O)n(CO)c(=O)n(CO)c1=O`, the EC50 is above 407 µM and the IC50 turned out to be 70.8 µM.

Regarding `COc1cc(NCCN2CCN(CCNc3cc(OC)cc4cccnc34)CC2)c2ncccc2c1`, the EC50 was above 50.1 µM and the IC50 was 45.7 µM.

For the molecule `O=c1cccc2n1CC1CNCC2C1` (stereo unspecified), the EC50 was above 200 µM and the IC50 was above 200 µM.

`Cc1ccc(S(=O)OC23CC4CC(CC(C4)C2)C3)cc1` (stereo unspecified): the outcome was inactive.

As for `Cn1cnc([N+](=O)[O-])c1Sc1ccccn1`, the EC50 was above 1050 µM and the IC50 is 42.7 µM.

In the case of `COc1ccc2c(c1)C(=O)CC1c3cnccc3C(=O)N21` (stereo unspecified), the EC50 is above 200 µM and the half-maximal inhibitory concentration (IC50) was determined as 115 µM.

For `CCOP(=O)(OCC)/C(C#N)=C/c1c(C)[nH]c2ccccc12`, the EC50 is above 200 µM and the IC50 came out at 158 µM.

Regarding `CC(=O)Oc1c2c(cc3c1C(=O)NC1C3=CC(OC(C)=O)[C@@H](OC(C)=O)[C@H]1OC(C)=O)OCO2` (stereo partly specified), the result was inactive.

On to `O=[N+]([O-])c1ccc(S(=O)(=O)NN2CCOCC2)cc1`, for which the EC50 was above 126 µM and the concentration for half-maximal inhibition (IC50) was above 126 µM.

Regarding `COc1ccc(OC)c2[nH]c(Sc3c([N+](=O)[O-])ncn3C)nc12`, the EC50 was above 21.4 µM and the IC50 was found to be 7.08 µM.

For the molecule `C1CC[N+]2(C1)CC[N+]1(CCCC1)CC2`, the EC50 was above 200 µM and the 50% inhibitory concentration (IC50) was above 200 µM.

For `CCN(CC)CCOCC1CCCN2CCCCC12` (stereo unspecified), the EC50 was above 200 µM and the IC50 was above 200 µM.

`NC(=O)c1c2c(cc3c(=O)c4ccccc4[nH]c13)CCCC2`: the outcome was inactive.

As to `CC(C)(C)N=c1n(C(C)(C)C)oc(=O)n1C(C)(C)C`, the EC50 was above 151 µM and the half-inhibitory concentration (IC50) came to 135 µM.

Consider `CC(C)C1=C(O)C2=C(C(=O)C1=O)C1(C)CCCC(C)(C)C1C(O)C2OC=O` (stereo unspecified), for which the EC50 is above 200 µM and the IC50 came out at 10.2 µM.

Regarding `CC(=O)OC1COC(n2c(=S)n(-c3ccccc3)c(=O)c3cc(Br)ccc32)C(OC(C)=O)C1OC(C)=O` (stereo unspecified), the EC50 is above 17 µM and the IC50 is above 17 µM.

As for `O=c1c2cc(Br)ccc2[nH]c(=S)n1-c1ccccc1`, the EC50 was above 40.7 µM and the 50% inhibitory concentration (IC50) is above 40.7 µM.

As for `CC1(C)CC2C=C(C=O)C3(C=O)CC3(C)C2C1` (stereo unspecified), the EC50 was above 3.47 µM and the IC50 came to 0.501 µM.

`COC(=O)CC(c1ccc(OC)cc1)C(CC(=O)OC)c1ccc(OC)cc1` (stereo unspecified): the EC50 is above 67.6 µM and the IC50 was 60.3 µM.

Turning to `COc1c(Cc2ccccc2O)c(O)c(Cc2cc(Cc3ccccc3O)ccc2O)c(O)c1C(=O)CCc1ccccc1`, the EC50 was above 60.3 µM and the IC50 came out at 21.4 µM.

On to `CS/C(=N\N=C(/C)c1ccccn1)SS/C(=N/N=C(\C)c1ccccn1)SC`, for which the EC50 is above 2 µM and the IC50 was 0.00741 µM.

Regarding `Cc1n[nH]c(=O)n1C1CC1`, the EC50 is above 200 µM and the IC50 was above 200 µM.

Consider `CC1(C)Cc2c(oc3ncnc(N)c23)CS1`, for which the EC50 was above 288 µM and the half-maximal inhibitory concentration (IC50) was above 288 µM.

As to `Cc1ccc(S(=O)(=O)NC(CCC(=O)NNc2ccccc2)C(=O)NNc2ccccc2)cc1` (stereo unspecified), the EC50 is above 200 µM.

As to `O=C1NC(=S)SC1N=Nc1ccc(S(=O)(=O)Nc2ncccn2)cc1` (stereo unspecified), the EC50 was above 200 µM and the concentration for half-maximal inhibition (IC50) is above 200 µM.

Turning to `CCCOC(=O)c1ccc(N)cc1`, the EC50 is above 200 µM and the 50% inhibitory concentration (IC50) was above 200 µM.

As to `CCOC(=O)[C@@]1(C(C)=O)CC(C)=C(C)C[S@]1=O`, the EC50 was above 200 µM and the half-maximal inhibitory concentration (IC50) was above 200 µM.

Take `CCC(=O)N(c1ccccc1)C(C)CN1CCC(O)(c2cccc(C(F)(F)F)c2)CC1` (stereo unspecified): the EC50 was above 200 µM and the IC50 was determined as 74.1 µM.

Take `C=CCN(c1cc(OC)c(NC(C)=O)cc1[N+](=O)[O-])S(C)(=O)=O`: the EC50 is above 200 µM and the IC50 is above 200 µM.

For `COC(=O)Cc1cc(=O)n2c([nH]c3ccccc32)c1C#N`, the EC50 was above 25.7 µM and the half-inhibitory concentration (IC50) was above 25.7 µM.

As to `N[C@@H](CCC(=O)NCP(=O)(O)O)C(=O)O`, the EC50 is above 200 µM and the IC50 was above 200 µM.

`CC(C)C1=CC23CCC4C(C)(C(=O)O)CCCC4(C)C2CC1C1C(=O)N(c2ccccc2)C(=O)C13` (stereo unspecified): the EC50 is above 52.5 µM and the IC50 is above 52.5 µM.

Turning to `O=C1O[C@H]2CCC3=CC[C@@H](c4ccccc4)C=C1[C@H]32`, the result was inactive.

On to `Cn1c(=O)n(-c2c3ccccc3c(Cl)c3ccccc23)n(C(C)(C)C)c1=O`, for which the EC50 was above 100 µM and the IC50 was above 100 µM.

For the molecule `O=c1c2ccccc2n2c(-c3ccccc3O)nnc2n1-c1ccccc1`, the EC50 is above 200 µM and the half-maximal inhibitory concentration (IC50) was above 200 µM.

Turning to `COc1nc2c(nnn2C2OC(CO)C(O)C(O)C2O)c(=O)n1C` (stereo unspecified), the result was inactive.

On to `C=C1CC(C#N)(C#N)[C@H]2C3CCCC3C[C@@H]12` (stereo partly specified) (tested in a mixture with another compound), for which the EC50 was above 200 µM and the concentration for half-maximal inhibition (IC50) stood at 33.1 µM.

Consider `O=C(/C=C/c1cccc(Br)c1)c1cccs1`, for which the outcome was inactive.

In the case of `O=C(CC1Sc2ccccc2NC1=O)Nc1cc(Cl)ccc1Cl` (stereo unspecified), the EC50 was above 70.8 µM and the half-maximal inhibitory concentration (IC50) was above 70.8 µM.

`Cc1ccc2cc(N)c3ccc(C)nc3c2n1`: the EC50 is above 2 µM and the IC50 was determined as 0.309 µM.

In the case of `N#CCCN(CCC#N)c1ccc(/C=C2\CC(O)(c3ccccc3)N(c3ccc(Cl)cc3)C2=O)cc1` (stereo unspecified), the EC50 was above 5.5 µM and the IC50 was above 5.5 µM.

With `CC(C)=CC1CC(=O)C1(C)Sc1ccccc1` (stereo unspecified), the EC50 was above 40.7 µM and the half-inhibitory concentration (IC50) was above 40.7 µM.

Regarding `O=Nc1ccc(O)cc1O`, the EC50 was above 200 µM and the IC50 turned out to be 148 µM.

For `Cc1cc(=O)oc2cc3c(cc12)Oc1ccccc1O3`, the EC50 was above 25.7 µM and the IC50 was above 25.7 µM.

On to `CC(C)c1c(Cc2ccccc2)n(COCCC[Se]c2ccccc2)c(=O)[nH]c1=O`, for which the EC50 is 0.0501 µM and the half-inhibitory concentration (IC50) turned out to be 1.38 µM.

In the case of `CCOC(=O)N1CCN(Cc2cc(=O)n3ccc(C)cc3n2)CC1`, the EC50 is above 200 µM and the IC50 was above 200 µM.

As for `CC(=O)Nc1ccc(C(=O)NN2C(=O)C(Cl)C2c2cccc([N+](=O)[O-])c2)cc1` (stereo unspecified), the EC50 was above 200 µM and the half-inhibitory concentration (IC50) turned out to be 85.1 µM.

As for `CC(=O)N1C(=O)c2cc3ccccc3cc21`, the EC50 is above 200 µM and the IC50 was above 100 µM.

With `O=c1c(O)c(-c2ccccc2)oc2ccccc12`, the EC50 was above 93.3 µM and the IC50 was 18.6 µM.

Regarding `Cn1c(C2CC(C)(C)c3c2c2ccccc2n3C)cc2ccccc21` (stereo unspecified), the EC50 was above 21.9 µM and the 50% inhibitory concentration (IC50) was above 21.9 µM.

Consider `O=C1C(N=Nc2ccc(Br)cc2)Sc2nc3ccccc3n21` (stereo unspecified), for which the EC50 was above 200 µM and the half-maximal inhibitory concentration (IC50) was above 200 µM.

For the molecule `CC1CCN(C(C)C)P(=S)(Cc2ccccc2)O1` (stereo unspecified), the EC50 was above 200 µM and the IC50 worked out at 123 µM.

In the case of `COC(=O)N1C2CCCCC2=NN(c2ccccc2)N1C(=O)OC` (stereo unspecified), the EC50 was above 204 µM and the concentration for half-maximal inhibition (IC50) is above 204 µM.

For the molecule `Nc1ncnc2c1sc1nc3ccccc3n12`, the EC50 is above 200 µM and the half-inhibitory concentration (IC50) was above 200 µM.

For `O=[N+]([O-])C(=C(\Cl)NCCO)/C(Cl)=C(/Cl)Br`, the EC50 was above 20 µM and the half-inhibitory concentration (IC50) turned out to be 1 µM.

In the case of `CN1CC(c2ccccc2)N(CCCCN2CC(c3ccccc3)N(C)CC2c2ccccc2)CC1c1ccccc1` (stereo unspecified), the EC50 is above 100 µM and the IC50 came to 58.9 µM.

As for `Cc1cccc(NC(=O)Nc2ccccc2Cl)n1`, the EC50 was above 200 µM and the IC50 is above 200 µM.

In the case of `CCn1c(=O)nc2n(-c3ccccc3)c3ccccc3nc-2c1=O`, the outcome was inactive.

In the case of `CCN1C[C@]2(COC)CCC(=O)C34[C@@H]5C[C@@H]6C(O)[C@@H]5[C@](O)(C[C@@H]6OC)[C@@H](C(OC)[C@@H]32)[C@H]14` (stereo partly specified), the result was inactive.

For the molecule `CCN(CC)c1ccc2cc(-c3csc(C)n3)c(=O)oc2c1`, the EC50 is above 200 µM and the IC50 stood at 10.2 µM.

For `COc1ccc(-c2c3ccccc3c(-c3ccc(OCCCCCBr)cc3)c3ccccc23)cc1`, the EC50 is above 2.75 µM and the 50% inhibitory concentration (IC50) was above 2.75 µM.

On to `O=C1CC2[C@@H](N3CCCC3)CCC(N1Cc1ccccc1)C2(O)O` (stereo partly specified), for which the EC50 was above 200 µM and the IC50 was above 200 µM.

Turning to `Nc1ccccc1C(=O)/C=C/c1c(O)ccc2ccccc12`, the result was inactive.

Values taken from PubChem BioAssay AID179 (DTP/NCI, 2004).
